Source: US20070161592A1, “Method of treating fear” (priority 2005, published 2007)

Columns and labels:
adult ACC neurons [1] = experiment: LTP induced by EPSPs-APs protocol in ACC slices; type: cell-based, mouse; conditions: 0.3 μM
Description: (§1) Coronal brain slices ([…]) from 6-8-week-old C57BL/6 mice, containing ACC or hippocampus, were prepared using standard methods (Wei et al., 2001). Slices were transferred to a submerged recovery chamber containing oxygenated (95% O2 and 5% CO2) artificial cerebrospinal fluid (ACSF) (in mM: 124 NaCl, 4.4 KCl, 2 CaCl2, 1 MgSO4, 25 NaHCO3, 1 NaH2PO4, 10 glucose) at room temperature for at least 1 h.
(§2) Experiments were performed in a recording chamber on the stage of an Axioskop 2FS microscope with infrared DIC optics for visualizing whole-cell patch clamp recordings. EPSCs were recorded from layer II-III neurons using an Axon 200B amplifier (Axon Instruments, CA) and stimulations were delivered using a bipolar tungsten stimulating electrode placed in layer V of the ACC. In hippocampal slices, EPSCs were evoked by stimulating the Schaffer collateral-commissural pathway. EPSCs were induced by repetitive stimulations at 0.02 Hz and neurons were voltage clamped at −70 mV. The recording pipettes (3-5 MΩ) were filled with solution containing (mM) 145 K-gluconate, 5 NaCl, 1 MgCl2, 0.2 EGTA, 10 HEPES, 2 Mg-ATP, and 0.1 Na3-GTP (adjusted to pH 7.2 with KOH). After obtaining stable EPSCs for 10 min, three kinds of LTP induction paradigms were used within 12 min after establishing the whole-cell configuration to prevent wash out effect on LTP induction (Tsvetkov et al., 2002). The first protocol involved paired presynaptic 80 pulses at 2 Hz with postsynaptic depolarization at +30 mV (referred to as pairing training). The second involved paired 3 presynaptic stimuli that caused 3 EPSPs (10 ms ahead) with 3 postsynaptic APs at 30 Hz, paired 15 times every 5 s (named as EPSPs-APs protocol). The third involved theta-burst stimulation (5 trains of burst with 4 pulses at 100 Hz, at 200 ms interval; repeated 4 times at intervals of 10 s; named as TBS). The NMDAR-mediated component of EPSCs was pharmacologically isolated in Mg^2+-free ACSF containing: CNQX (20 μM), glycine (1 μM) and picrotoxin (100 μM). The patch electrodes contained (in mM) 102 cesium gluconate, 5 TEA-chloride, 3.7 NaCl, 11 BAPTA, 0.2 EGTA, 20 HEPES, 2 MgATP, 0.3 NaGTP, and 5 QX-314 chloride (adjusted to pH 7.2 with CsOH). Neurons were voltage clamped at −60 mV and NMDARs-mediated EPSCs were evoked at 0.05 Hz. Picrotoxin (100 μM) was always present to block GABAA receptor-mediated inhibitory synaptic currents. The access resistance was 15-30 MΩ and was monitored throughout the experiment. Data were discarded if access resistance changed by more than 15% during an experiment. Results are expressed as means±SEM. Statistical comparisons were performed using the Student t-test. […]

adult ACC neurons [2] = experiment: LTP induced by theta-burst stimulation (TBS) in ACC slices; type: cell-based, mouse; conditions: 0.3 μM
Description: as §1, §2

[3] = tested on: NMDAR-mediated currents in the hippocampus; experiment: NMDAR-mediated EPSCs in hippocampal CA1 neurons; type: cell-based, mouse; conditions: hippocampus
Description: as §1
Experiments were performed in a recording chamber on the stage of an Axioskop 2FS microscope with infrared DIC optics for visualizing whole-cell patch clamp recordings. EPSCs were recorded from layer II-III neurons using an Axon 200B amplifier (Axon Instruments, CA) and stimulations were delivered using a bipolar tungsten stimulating electrode placed in layer V of the ACC. In hippocampal slices, EPSCs were evoked by stimulating the Schaffer collateral-commissural pathway. EPSCs were induced by repetitive stimulations at 0.02 Hz and neurons were voltage clamped at −70 mV. The recording pipettes (3-5 MΩ) were filled with solution containing (mM) 145 K-gluconate, 5 NaCl, 1 MgCl2, 0.2 EGTA, 10 HEPES, 2 Mg-ATP, and 0.1 Na3-GTP (adjusted to pH 7.2 with KOH). After obtaining stable EPSCs for 10 min, three kinds of LTP induction paradigms were used within 12 min after establishing the whole-cell configuration to prevent wash out effect on LTP induction (Tsvetkov et al., 2002). The first protocol involved paired presynaptic 80 pulses at 2 Hz with postsynaptic depolarization at +30 mV (referred to as pairing training). The second involved paired 3 presynaptic stimuli that caused 3 EPSPs (10 ms ahead) with 3 postsynaptic APs at 30 Hz, paired 15 times every 5 s (named as EPSPs-APs protocol). The third involved theta-burst stimulation (5 trains of burst with 4 pulses at 100 Hz, at 200 ms interval; repeated 4 times at intervals of 10 s; named as TBS). The NMDAR-mediated component of EPSCs was pharmacologically isolated in Mg^2+-free ACSF containing: CNQX (20 μM), glycine (1 μM) and picrotoxin (100 μM). The patch electrodes contained (in mM) 102 cesium gluconate, 5 TEA-chloride, 3.7 NaCl, 11 BAPTA, 0.2 EGTA, 20 HEPES, 2 MgATP, 0.3 NaGTP, and 5 QX-314 chloride (adjusted to pH 7.2 with CsOH). Neurons were voltage clamped at −60 mV and NMDARs-mediated EPSCs were evoked at 0.05 Hz. Picrotoxin (100 μM) was always present to block GABAA receptor-mediated inhibitory synaptic currents. The access resistance was 15-30 MΩ and was monitored throughout the experiment. Data were discarded if access resistance changed by more than 15% during an experiment. Results are expressed as means±SEM. Statistical comparisons were performed using the Student t-test.
One possible mechanism is that NR2B-containing receptors may contribute more to total NMDA currents in ACC synapses than in hippocampal synapses. […] Application of 0.1 μM or 0.4 μM NVP-AAM077 depressed total NMDAR-mediated currents by 59.0±4.3% (n=5) and 63.2±1.7% (n=6) in the ACC respectively (FIG. 5). On the other hand, application of 0.3 μM or 3 μM Ro25-6981 attenuated total NMDAR-mediated currents by 18.0±1.9% (n=5) and 18.1±3.4% (n=7) in the ACC respectively, showing that 0.3 μM Ro25-6981 was sufficient to block the NR2B-mediated currents (FIG. 5). This experiment was repeated in hippocampal CA1 neurons. […] However, unlike in the ACC, application of 0.3 μM Ro25-6981 alone potentiated, rather than blocked, total NMDAR-mediated currents by 51.3±16.4% in the hippocampus (FIG. 5).
The same experiment was repeated in the hippocampus.

NR1/NR2B = conditions: cited from earlier work

## C[C@@H](CN1CCC(Cc2ccccc2)CC1)[C@@H](O)c1ccc(O)cc1 [Ro25-6981]
Adult ACC neurons [1]
  potentiation after EPSPs-APs protocol, % of baseline: 114.4±11.5%
Adult ACC neurons [1]; FIG. 4B
  effect on LTP induced by EPSPs-APs protocol: blocked
Adult ACC neurons [2]
  LTP after TBS, % of baseline: 105.5±8.3%
Adult ACC neurons [2]; FIG. 4E
  effect on LTP induced by TBS: blocked
[3]; 0.3 μM Ro25-6981 added to the same neuron after 0.4 μM NVP-AAM077
  further reduction of total NMDAR-mediated currents: 6.6±1.4%
[3]; 0.3 μM alone
  potentiation of total NMDAR-mediated currents: 51.3±16.4%
[3]; bath application, FIG. 5
  effect on total NMDAR-mediated currents: enhanced
NR1/NR2B
  IC50: 9 nM
